{"source": "patent US20180193332A1", "about": "“LOW-TEMPERATURE STABLE OPIOID ANTAGONIST SOLUTIONS” (priority 2017, published 2018)", "key": {"[1]": {"assay": "Naloxone HCl precipitation after freeze/thaw", "type": "physicochemical", "source_text": "However, the solution remained opaque when thawed, and precipitation was evident. […] The precipitate could not be re-dissolved in solution following sonication. […]"}, "[2]": {"assay": "Naloxone stability (visual precipitation) during storage at 4° C.", "type": "physicochemical"}, "[3]": {"conditions": "per 100 mL: EDTA-Na2 0 mg, PG 5% w/v"}, "[4]": {"conditions": "per 100 mL: EDTA-Na2 0 mg, PG 10% w/v"}, "[5]": {"conditions": "per 100 mL: EDTA-Na2 0 mg, PG 20% w/v"}, "[6]": {"conditions": "per 100 mL: EDTA-Na2 100 mg, PG 5% w/v"}, "[7]": {"conditions": "per 100 mL: EDTA-Na2 100 mg, PG 10% w/v"}, "[8]": {"conditions": "per 100 mL: EDTA-Na2 100 mg, PG 20% w/v"}}, "note": "Structures can show the parent of a compound that is named as a salt.", "data": [{"molecule": "C=CCN1CC[C@]23c4c5ccc(O)c4O[C@H]2C(=O)CC[C@@]3(O)[C@H]1C5", "note": "[naloxone HCl]", "values": [{"measurement": "Naloxone precipitation?", "setting": "[1]; per mL: NaCl 3.7 mg, EDTA-Na2 2.0 mg, PG 20% w/v, EtOH 0% w/v, 1 freeze/thaw cycle", "value": "yes"}, {"measurement": "Naloxone precipitation?", "setting": "[1]; per mL: NaCl 7.4 mg, EDTA-Na2 0.0 mg, PG 5% w/v, EtOH 0% w/v, 3 freeze/thaw cycles", "value": "No"}, {"measurement": "Naloxone precipitation?", "setting": "[1]; per mL: NaCl 7.4 mg, EDTA-Na2 0.0 mg, PG 10% w/v, EtOH 0% w/v, 3 freeze/thaw cycles", "value": "no"}, {"measurement": "Naloxone precipitation?", "setting": "[1]; per mL: NaCl 7.4 mg, EDTA-Na2 0.0 mg, PG 20% w/v, EtOH 0% w/v, 3 freeze/thaw cycles", "value": "no"}, {"measurement": "Naloxone precipitation?", "setting": "[1]; per mL: NaCl 7.4 mg, EDTA-Na2 1.0 mg, PG 5% w/v, EtOH 0% w/v, 3 freeze/thaw cycles", "value": "no"}, {"measurement": "Naloxone precipitation?", "setting": "[1]; per mL: NaCl 7.4 mg, EDTA-Na2 1.0 mg, PG 10% w/v, EtOH 0% w/v, 3 freeze/thaw cycles", "value": "no"}, {"measurement": "Naloxone precipitation?", "setting": "[1]; per mL: NaCl 7.4 mg, EDTA-Na2 1.0 mg, PG 20% w/v, EtOH 0% w/v, 4 freeze/thaw cycles", "value": "no"}, {"measurement": "Naloxone precipitation?", "setting": "[1]; per mL: NaCl 7.4 mg, EDTA-Na2 1.0 mg, PG 20% w/v, EtOH 0% w/v, 7 freeze/thaw cycles", "value": "no"}, {"measurement": "Naloxone precipitation?", "setting": "[1]; per mL: NaCl 7.4 mg, EDTA-Na2 2.0 mg, PG 10% w/v, EtOH 0% w/v, 1 freeze/thaw cycle", "value": "yes"}, {"measurement": "Naloxone precipitation?", "setting": "[1]; per mL: NaCl 7.4 mg, EDTA-Na2 2.0 mg, PG 20% w/v, EtOH 0% w/v, 1 freeze/thaw cycle", "value": "yes"}, {"measurement": "Naloxone precipitation?", "setting": "[1]; per mL: NaCl 7.4 mg, EDTA-Na2 2.0 mg, PG 20% w/v, EtOH 2% w/v, 1 freeze/thaw cycle", "value": "yes"}, {"measurement": "Naloxone precipitation?", "setting": "[1]; per mL: NaCl 7.4 mg, EDTA-Na2 2.0 mg, PG 20% w/v, EtOH 5% w/v, 1 freeze/thaw cycle", "value": "yes"}, {"measurement": "Naloxone precipitation?", "setting": "[1]; per mL: NaCl 7.4 mg, EDTA-Na2 2.0 mg, PG 20% w/v, EtOH 10% w/v, 1 freeze/thaw cycle", "value": "yes"}, {"measurement": "Naloxone precipitation?", "setting": "[1]; per mL: NaCl 7.4 mg, EDTA-Na2 2.0 mg, PG 30% w/v, EtOH 0% w/v, 1 freeze/thaw cycle", "value": "yes"}]}, {"molecule": "C=CCN1CC[C@]23c4c5ccc(O)c4O[C@H]2C(=O)CC[C@@]3(O)[C@H]1C5", "note": "[Naloxone]", "values": [{"measurement": "Observed naloxone precipitation 24 days", "setting": "[2]; [3]", "value": "No"}, {"measurement": "Observed naloxone precipitation 35 days", "setting": "[2]; [3]", "value": "No"}, {"measurement": "Observed naloxone precipitation 53 days", "setting": "[2]; [3]", "value": "No"}, {"measurement": "Observed naloxone precipitation 24 days", "setting": "[2]; [4]", "value": "No"}, {"measurement": "Observed naloxone precipitation 35 days", "setting": "[2]; [4]", "value": "No"}, {"measurement": "Observed naloxone precipitation 53 days", "setting": "[2]; [4]", "value": "No"}, {"measurement": "Observed naloxone precipitation 24 days", "setting": "[2]; [5]", "value": "No"}, {"measurement": "Observed naloxone precipitation 35 days", "setting": "[2]; [5]", "value": "No"}, {"measurement": "Observed naloxone precipitation 53 days", "setting": "[2]; [5]", "value": "No"}, {"measurement": "Observed naloxone precipitation 24 days", "setting": "[2]; [6]", "value": "No"}, {"measurement": "Observed naloxone precipitation 35 days", "setting": "[2]; [6]", "value": "No"}, {"measurement": "Observed naloxone precipitation 53 days", "setting": "[2]; [6]", "value": "No"}, {"measurement": "Observed naloxone precipitation 24 days", "setting": "[2]; [7]", "value": "No"}, {"measurement": "Observed naloxone precipitation 35 days", "setting": "[2]; [7]", "value": "No"}, {"measurement": "Observed naloxone precipitation 53 days", "setting": "[2]; [7]", "value": "No and Slight"}, {"measurement": "Observed naloxone precipitation 24 days", "setting": "[2]; [8]", "value": "No and Slight"}, {"measurement": "Observed naloxone precipitation 35 days", "setting": "[2]; [8]", "value": "No and Yes"}, {"measurement": "Observed naloxone precipitation 53 days", "setting": "[2]; [8]", "value": "No and Yes"}]}]}
